Tests used:
[1] = target: D2 dopamine receptor (D2R) S193 mutants (Val, Leu, Ala) (Homo sapiens, UniProt P14416, S193A); assay: Mutagenesis of Ser193 (S193) of D2R, ligand affinity; format: binding; settings: S193 mutated to a smaller residue (Ala)
Excerpt: (§1) To test the embodiment's predictions, mutagenesis experiments were designed.

[2] = test system: D2 dopamine receptor (D2R) S193 mutants (Val, Leu, Ala); assay: as above; format: binding; settings: S193 mutated to a larger residue (Val or Leu)
Excerpt: as §1

[3] = test system: D2 dopamine receptor (D2R) Val91 and Trp100 mutants; assay: Mutagenesis of Val91 and Trp100 of D2R, ligand affinity; settings: mutation of Val91 and Trp100, top of the ligand binding pocket
Excerpt: Mutations to several residues surrounding the top and bottom of the binding pocket were also considered. Unlike Glide, the embodiment predicts that all four ligands will position a fluorobenzene ring at the bottom of the binding pocket, packing favorably against Trp386 (W386). […] At the top of the ligand binding pocket, near Val91 and Trp100, the embodiment predicts that the pimozide and benperidol will place identical functional groups that differ somewhat from those of spiperone and mespiperone.

D2 dopamine receptor (D2R) S193 mutants (Val, Leu, Ala) (Homo sapiens, UniProt P14416, S193A), sequence (P14416 whole entry S193A): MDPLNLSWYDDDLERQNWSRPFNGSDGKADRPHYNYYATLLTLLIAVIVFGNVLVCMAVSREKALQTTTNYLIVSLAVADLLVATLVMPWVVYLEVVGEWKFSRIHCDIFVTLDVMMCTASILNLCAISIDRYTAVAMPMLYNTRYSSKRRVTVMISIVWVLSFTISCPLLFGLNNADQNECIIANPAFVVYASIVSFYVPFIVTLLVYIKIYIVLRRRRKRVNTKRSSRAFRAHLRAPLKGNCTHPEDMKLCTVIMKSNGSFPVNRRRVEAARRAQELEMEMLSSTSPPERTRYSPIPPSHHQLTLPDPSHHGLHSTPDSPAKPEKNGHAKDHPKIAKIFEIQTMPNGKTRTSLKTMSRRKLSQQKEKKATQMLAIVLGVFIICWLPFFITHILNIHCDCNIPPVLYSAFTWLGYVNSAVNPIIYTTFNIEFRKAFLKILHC

With `O=C(CCCN1CCC(n2c(O)nc3ccccc32)CC1)c1ccc(F)cc1` [benperidol] the “change of affinity on mutation” value [1] was “not observed”, the “change of affinity on mutation” value [2] was “increases” and the “effect of mutation on ligand” value [3] was “slightly differently from spiperone and mespiperone”.
